The subject of assay [1] is endothelial nitric oxide synthase (eNOS). Put plainly: Endothelial nitric oxide synthase (eNOS) in EA.Hy926 endothelial cells, detection kit. It counts as cell-based. To be noted: EA.Hy926 cell supernatant, 24 h. As for the experimental part: (§1) Commercially available cytokine kits were used to detect the effects of the compounds of the present application on vascular endothelium-derived contracting factor endothelin, vascular endothelium-derived relaxing factor endothelial nitric oxide synthase, nitric oxide, and prostacyclin factor. The detection was performed according to the kit instructions. When testing the effect of the compound of the present application on cytokines, a normal control group, a fasudil hydrochloride group, and high-, medium- and low-dose groups of the compounds of the present application were set up for testing. The fasudil hydrochloride used in this test example was purchased from Beijing Sihuan Pharmaceutical Co., Ltd., with the SFDA approval number of H20173349. The EA.Hy926 cells used in this test example were purchased from Suzhou Beina Chuanglian Biotechnology Co., Ltd.
Detection conditions: EA.Hy926 cells were inoculated at 1×10^5 […] in a 96-well plate, 100 μL per well, and cultured adherently for 24 hours, then the test compound prepared with DMEM medium was added, the normal control group was added with an equal volume of DMEM medium, then the cells were cultured for 24 hours at 37° C., and then the cell supernatant was taken and placed in an EP tube, and centrifuged at 3000 r/min and 4° C. for 15 minutes, the resulting supernatant was transferred to a new EP tube, diluted 3 times, and detected according to the instruction of eNOs detection kit (purchased from Wuhan Elabscience Biotechnology Co., Ltd., Cat. No. AK0017OCT12013), and the detection results were shown in Table 4.

The test system of another assay is endothelin (ET-1). As to the kind of experiment: Expression of endothelin (ET-1) in EA.Hy926 endothelial cells, detection kit. The assay is classed as cell-based, human. To be noted: 48 h; for expression of endothelin in endothelial cells: Detection result of test compound at low dose (0.4 μM) / expression of endothelin in endothelial cells: Detection result of test compound at medium dose (2 μM) / expression of endothelin in endothelial cells: Detection result of test compound at high dose (10 μM): EA.Hy926 cell supernatant. As to the method:
as §1
EA.Hy926 cells were taken and inoculated in a 96-well plate at 5×10^4 cells/mL, 100 μL per well, and cultured adherently for 24 hours, then the test compound prepared in DMEM medium was added, and an equal volume of DMEM medium was added in the normal control group, then the cells were cultured at 37° C. for 48 hours, and then the cell supernatant was taken and placed in an EP tube, and centrifuged at 3000 r/min, 4° C. for 15 min. The resulting cell supernatant was transferred to a new EP tube, diluted twice with culture medium, and detected according to the instruction of the human endothelin detection kit (purchased from Wuhan Boster Biological Engineering Co., Ltd., batch number 59113731009), and the detection results were shown in Table 2.

Where a name gives a salt, the structure may show the parent alone.

Consider `CC(C)[C@@H]1CNCCCN1S(=O)(=O)c1cccc2c(O)nccc12` [Compound R-YK1609, (R)-5-((2-isopropyl-1,4-diazacycloheptan-1-yl)sulfonyl)isoquinolin-1-ol], for which, in assay [1], the “expression of endothelial nitric oxide synthase in endothelial cells: Detection result of test compound at low dose (0.4 μM)” value is 2728.44 ± 257.58 pg/mL, the “expression of endothelial nitric oxide synthase in endothelial cells: Detection result of test compound at medium dose (2 μM)” value was 2375.91 ± 287.28 pg/mL and the “expression of endothelial nitric oxide synthase in endothelial cells: Detection result of test compound at high dose (10 μM)” value was 2235.87 ± 213.65 pg/mL. For the same molecule, in the assay on endothelin (ET-1), the “expression of endothelin in endothelial cells: Detection result of test compound at low dose (0.4 μM)” value (from here on “expression of endothelin … (0.4 μM)”) amounted to 222.75 ± 52.53 pg/mL, the “expression of endothelin in endothelial cells: Detection result of test compound at medium dose (2 μM)” value (from here on “expression of endothelin … (2 μM)”) was 232.72 ± 22.83 pg/mL and the “expression of endothelin in endothelial cells: Detection result of test compound at high dose (10 μM)” value (“expression of endothelin … (10 μM)” below) came out at 242.03 ± 1.24 pg/mL.

In the case of `CC[C@@H]1CNCCCN1S(=O)(=O)c1cccc2c(OC)nccc12` [Compound R-YK1610, (R)-5-((2-ethyl-1,4-diazacycloheptan-1-yl)sulfonyl)-1-methoxyisoquinoline], in assay [1], the “expression of endothelial nitric oxide synthase in endothelial cells: Detection result of test compound at low dose (0.4 μM)” value worked out at 2632.05 ± 235.87 pg/mL, the “expression of endothelial nitric oxide synthase in endothelial cells: Detection result of test compound at medium dose (2 μM)” value was determined as 2397.93 ± 280.08 pg/mL and the “expression of endothelial nitric oxide synthase in endothelial cells: Detection result of test compound at high dose (10 μM)” value was 2329.68 ± 263.98 pg/mL. In addition, in the assay on endothelin (ET-1), the “expression of endothelin … (0.4 μM)” value came to 259.20 ± 2.21 pg/mL, the “expression of endothelin … (2 μM)” value was 260.34 ± 7.94 pg/mL and the “expression of endothelin … (10 μM)” value came to 238.68 ± 3.34 pg/mL.

On to `CCCC[C@@H]1CNCCCN1S(=O)(=O)c1cccc2c(O)nccc12` [Compound R-YK1611, (R)-5-((2-butyl-1,4-diazacycloheptan-1-yl)sulfonyl)isoquinolin-1-ol], for which, in assay [1], the “expression of endothelial nitric oxide synthase in endothelial cells: Detection result of test compound at low dose (0.4 μM)” value was 2652.53 ± 279.27 pg/mL, the “expression of endothelial nitric oxide synthase in endothelial cells: Detection result of test compound at medium dose (2 μM)” value amounted to 2291.59 ± 253.56 pg/mL and the “expression of endothelial nitric oxide synthase in endothelial cells: Detection result of test compound at high dose (10 μM)” value is 2195.70 ± 187.16 pg/mL. In the assay with endothelin (ET-1), the “expression of endothelin … (0.4 μM)” value was found to be 238.20 ± 2.28 pg/mL, the “expression of endothelin … (2 μM)” value turned out to be 249.34 ± 7.96 pg/mL and the “expression of endothelin … (10 μM)” value came out at 235.68 ± 3.34 pg/mL.

On to `COc1nccc2c(S(=O)(=O)N3CCCNC[C@H]3CCC(C)C)cccc12` [Compound R-YK1612, (R)-5-((2-isopentyl-1,4-diazacycloheptan-1-yl)sulfonyl)-1-methoxyisoquinoline], for which, in assay [1], the “expression of endothelial nitric oxide synthase in endothelial cells: Detection result of test compound at low dose (0.4 μM)” value came to 2776.58 ± 261.27 pg/mL, the “expression of endothelial nitric oxide synthase in endothelial cells: Detection result of test compound at medium dose (2 μM)” value turned out to be 2456.67 ± 226.85 pg/mL and the “expression of endothelial nitric oxide synthase in endothelial cells: Detection result of test compound at high dose (10 μM)” value turned out to be 2286.671 ± 195.06 pg/mL. Moreover, in the assay on endothelin (ET-1), the “expression of endothelin … (0.4 μM)” value turned out to be 232.61 ± 9.70 pg/mL, the “expression of endothelin … (2 μM)” value is 229.98 ± 11.41 pg/mL and the “expression of endothelin … (10 μM)” value was determined as 249.23 ± 0.75 pg/mL.

For `O=S(=O)(c1cccc2cnccc12)N1CCCNCC1` [Fasudil hydrochloride, reference compound], in assay [1], the “expression of endothelial nitric oxide synthase in endothelial cells: Detection result of test compound at low dose (0.4 μM)” value stood at 2810.61 ± 13.02 pg/mL, the “expression of endothelial nitric oxide synthase in endothelial cells: Detection result of test compound at medium dose (2 μM)” value is 2648.66 ± 9.59 pg/mL and the “expression of endothelial nitric oxide synthase in endothelial cells: Detection result of test compound at high dose (10 μM)” value is 2636.14 ± 188.26 pg/mL. For the same molecule, in the assay with endothelin (ET-1), the “expression of endothelin … (0.4 μM)” value came to 254.29 ± 3.35 pg/mL, the “expression of endothelin … (2 μM)” value is 252.58 ± 3.92 pg/mL and the “expression of endothelin … (10 μM)” value turned out to be 325.69 ± 9.78 pg/mL. The “effect on the expression and secretion of endothelin (in words)” value in the assay with endothelin (ET-1) (high, medium and low doses) was “significantly promote the expression and secretion of endothelin”.

These data come from patent publication US12264146B2, “Rho kinase inhibitor, method for preparing same and uses thereof” (BEIJING INCREASE INNOVATIVE DRUG CO., LTD., priority 2018, dated 2025).
